# Experiments:
# Format in all cases: cell-based
# Human LBAT = target: T1, Human LBAT (Homo sapiens, UniProt Q14973); assay: LBAT (h/m) assay: 3H-taurocholic acid uptake in human LBAT-overexpressing cells; conditions: 0.3 μM 3H-taurocholic acid and 7.5 μM cold taurocholic acid, 20 minutes, read-out: hLBAT IC50
# T1 construct: expressed in transfected cells; kept under Geneticin selection
# T1 sequence (Q14973 1-349): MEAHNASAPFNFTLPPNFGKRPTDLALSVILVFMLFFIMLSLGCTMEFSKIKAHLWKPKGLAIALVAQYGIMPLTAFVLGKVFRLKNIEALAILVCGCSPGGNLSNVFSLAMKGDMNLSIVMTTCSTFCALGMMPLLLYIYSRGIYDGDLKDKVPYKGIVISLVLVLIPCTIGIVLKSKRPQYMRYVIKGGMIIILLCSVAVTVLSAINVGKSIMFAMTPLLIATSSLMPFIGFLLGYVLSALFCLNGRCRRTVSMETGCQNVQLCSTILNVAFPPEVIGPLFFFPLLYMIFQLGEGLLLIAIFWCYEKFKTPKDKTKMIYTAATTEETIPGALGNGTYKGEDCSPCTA
# Summary of the method: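 LBAT-overexpressing cells, serum-free MEM-alpha, 20 min at 37° C with inhibitor (3-fold, 10-point) plus 0.3 μM 3H-taurocholic acid and cold taurocholic acid (7.5 μM human; 25 μM mouse), 0.2% DMSO. Stopped on ice, washed with 1 mM unlabelled taurocholate; uptake by scintillation counting.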
# Human ASBT = target: T2, Human ASBT (Homo sapiens, UniProt Q12908); assay: ASBT (h/m) assay: 3H-taurocholic acid uptake in human ASBT-overexpressing cells; conditions: 0.25 μM 3H-taurocholic acid and 5 μM cold taurocholic acid, 20 minutes, read-out: hASBT IC50
# T2 construct: expressed in transfected cells; kept under Puromycin selection
# T2 sequence (Q12908 1-348): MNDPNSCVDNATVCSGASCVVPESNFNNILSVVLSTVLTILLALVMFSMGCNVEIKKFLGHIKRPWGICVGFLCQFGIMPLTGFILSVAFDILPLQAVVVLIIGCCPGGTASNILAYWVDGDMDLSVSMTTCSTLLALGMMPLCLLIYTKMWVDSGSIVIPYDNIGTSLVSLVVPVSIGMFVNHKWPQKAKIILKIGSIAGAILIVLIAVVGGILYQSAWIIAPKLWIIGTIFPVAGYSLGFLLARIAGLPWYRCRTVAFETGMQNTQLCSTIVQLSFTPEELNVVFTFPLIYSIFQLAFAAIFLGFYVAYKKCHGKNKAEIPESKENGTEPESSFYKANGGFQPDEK
# Description: ASBT (h/m) Assay Protocol
# 10,000 cells (Human or Mouse ASBT-overexpressing cells) were seeded in 96-wells plate (Corning CLS3809) in 200 μL MEM-alpha medium (Gibco 12571-063) supplemented with 10% FBS (Gibco 10438026) containing Puromycin (Gibco A1113803) (10 μg/mL) and incubated at 37° C. in 5% CO2 for 48 hours. After incubation, media was decanted from the wells and cells were washed two times with 300 μL of basal MEM-alpha medium (FBS-free). After decanting basal MEM-alpha medium each time, plates were tapped against paper towel to ensure maximum removal of residual media. Test inhibitor dilutions (highest test concentration being 10 μM, 3-fold serial dilution, 10 points) prepared in DMSO (Sigma D2650) were added in incubation mix (maintaining 0.2% final DMSO concentration) containing 0.25 μM 3H-taurocholic acid (ARC ART-1368) and 5 μM of cold taurocholic acid (Sigma T4009). 50 μL of incubation mix containing test inhibitors was then added to the wells (in duplicate) and the plates were incubated for 20 minutes in a CO2 incubator at 37° C. After incubation, the reaction was stopped by keeping the plates on ice water mix for 2-3 minutes and then the incubation mix was aspirated completely from the wells. The wells were washed two times with 250 μL of chilled unlabelled 1 mM taurocholic acid dissolved in HEPES (Gibco 15630080)-buffered (10 mM) HBSS (Gibco 14175079) (pH 7.4). The plates were tapped against a paper towel after every wash to ensure maximum removal of blocking buffer.
# (§1) 100 μL of MicroScint-20 (PerkinElmer 6013621) was added to the wells and kept overnight at room temperature before reading the plates in TopCount NXT™ Microplate Scintillation and Luminescence Counter from PerkinElmer under 3H Test protocol (set at 120 seconds reading time per well).
# (§2) Preparation of Test Compound Dilutions
# (§3) All test compounds were provided in powder form at room temperature. 10 mM DMSO stocks of the test compounds were prepared, aliquoted and stored at −20° C. From the 10 mM DMSO stock of the compounds, a 3-fold serial dilution in DMSO was prepared to get a total of 10 dilutions of the test compounds. 0.5 μL of this dilution in DMSO was added to 250 μL of FBS-free basal media containing 3H-taurocholic acid and cold taurocholic acid to prepare the incubation mixture.
# HepaRG cells = assay: HepaRG-based assay: 3H-taurocholic acid uptake in differentiated HepaRG cells; conditions: 0.3 μM 3H-taurocholic acid and 7.5 μM cold taurocholic acid, 30 minutes
# Description: HepaRG-Based Assay Protocol
# A cryopreserved vial of differentiated HepaRG cells (Biopredic International HPR116080) was thawed in HepaRG Thawing/Plating/General Purpose Medium (Biopredic International ADD670C) supplemented with 200 mM Glutamax (Gibco 35050061) following the protocol provided by Biopredic International. 70,000 cells per well were seeded in 96-wells plate (Corning CLS3809) in 100 μL of HepaRG Thawing/Plating/General Purpose Medium supplemented with 200 mM Glutamax and incubated at 37° C. in 5% CO2 for 24 hours. Post incubation, the seeding media was replaced by HepaRG Maintenance/Metabolism Medium (Biopredic International ADD620C) and incubated for 6 days, with fresh HepaRG Maintenance/Metabolism Medium replenishment every 48 hours. After 7 days incubation post seeding, incubation media was decanted from the wells and cells were washed two times with 250 μL of William's E Basal Media (Gibco 12551032). After decanting William's E Basal Media each time, plates were tapped against paper towel to ensure maximum removal of residual media.
# Incubation mix was prepared by adding test inhibitor dilutions (3-fold serial dilution in DMSO (Sigma D2650)) in William's E media (basal) containing 0.3 μM 3H-taurocholic acid (ARC ART-1368) and 7.5 μM cold taurocholic acid (Sigma T4009) (maintaining 0.2% final DMSO concentration). 50 μl of incubation mix containing test inhibitors was then added to the wells (in duplicate) and the plates were incubated for 30 minutes in 5% CO2 incubator at 37° C. After incubation, the reaction was stopped by keeping the plates on ice water mix for 2-3 minutes and then the incubation mix was aspirated completely from the wells. The wells were washed two times with 250 μL of chilled unlabelled 1 mM taurocholic acid dissolved in HEPES (Gibco 15630080)-buffered (10 mM) HBSS (Gibco 14175079) (pH 7.4). The plates were tapped against a paper towel after every wash to ensure maximum removal of blocking buffer.
# as §1, with “well, with normal plate orientation).” for “well).”
# as §2, §3
Structure (SMILES),IC50 (Human LBAT) [nM],IC50 (Human ASBT) [nM],"IC50 (HepaRG cells; Homo sapiens, HepaRG) [nM]",IC50 (HepaRG cells) [nM]
"CCCCC1(CC)CN(c2ccccc2)c2cc(SC)c(O/C=C/C(=O)O)cc2S(=O)(=O)C1 (racemic) [Example 16, (E)-3-((3-butyl-3-ethyl-7-(methylthio)-1,1-dioxido-5-phenyl-2,3,4,5-tetrahydro-1,5-benzothiazepin-8-yl)oxy)acrylic Acid]",82,33,1030,
"CCCCC1(CC)CN(c2ccccc2)c2cc(SC)c(O/C=C(\F)C(=O)O)cc2S(=O)(=O)C1 (racemic) [Example 41, (Z)-3-((3-butyl-3-ethyl-7-(methylthio)-1,1-dioxido-5-phenyl-2,3,4,5-tetrahydro-1,5-benzothiazepin-8-yl)oxy)-2-fluoroacrylic Acid]",8.3,26,336,
"CCCCC1(CC)CN(c2ccccc2)c2cc(Cl)c(O/C=C(\F)C(=O)O)cc2S(=O)(=O)C1 (racemic) [Example 46, (Z)-3-((3-butyl-7-chloro-3-ethyl-1,1-dioxido-5-phenyl-2,3,4,5-tetrahydro-1,5-benzothiazepin-8-yl)oxy)-2-fluoroacrylic Acid]",24,97,590,
"CCCCC1(CC)CN(c2ccccc2)c2cc(Cl)c(O/C=C/C(=O)O)cc2S(=O)(=O)C1 (racemic) [Example 49, (E)-3-((3-butyl-7-chloro-3-ethyl-1,1-dioxido-5-phenyl-2,3,4,5-tetrahydro-1,5-benzothiazepin-8-yl)oxy)acrylic Acid]",94,220,570,
"CCCCC1(CC)CN(c2ccccc2)c2cc(SC)c(O/C=C(\F)C(=O)O)cc2S(=O)(=O)C1 (single isomer, unassigned) [Example 42, (Z)-3-((3-butyl-3-ethyl-7-(methylthio)-1,1-dioxido-5-phenyl-2,3,4,5-tetrahydro-1,5-benzothiazepin-8-yl)oxy)-2-fluoroacrylic acid]",10,220,378,
"CCCCC1(CC)CN(c2ccccc2)c2cc(Cl)c(O/C=C(\F)C(=O)O)cc2S(=O)(=O)C1 (single isomer, unassigned) [Example 47, (Z)-3-((3-butyl-7-chloro-3-ethyl-1,1-dioxido-5-phenyl-2,3,4,5-tetrahydro-1,5-benzothiazepin-8-yl)oxy)-2-fluoroacrylic acid]",25,339,362,
"CCCCC1(CC)CN(c2ccccc2)c2cc(Cl)c(O/C=C/C(=O)O)cc2S(=O)(=O)C1 (single isomer, unassigned) [Example 50, (E)-3-((3-butyl-7-chloro-3-ethyl-1,1-dioxido-5-phenyl-2,3,4,5-tetrahydro-1,5-benzothiazepin-8-yl)oxy)acrylic acid]",89,77,339,

# Second part, the compound after the results:
IC50 (Human LBAT) [nM],IC50 (Human ASBT) [nM],"IC50 (HepaRG cells; Homo sapiens, HepaRG) [nM]",IC50 (HepaRG cells) [nM],Structure (SMILES)
10,35,358,,"CCCCC1(CC)CN(c2ccccc2)c2cc(Br)c(O/C=C(\F)C(=O)O)cc2S(=O)(=O)C1 (racemic) [Example 63, (Z)-3-((7-bromo-3-butyl-3-ethyl-1,1-dioxido-5-phenyl-2,3,4,5-tetrahydro-1,5-benzothiazepin-8-yl)oxy)-2-fluoroacrylic Acid]"
31,28,559,,"CCCCC1(CC)CN(c2ccccc2)c2cc(SC)c(O/C=C(\F)C(=O)O)cc2S(=O)(=O)N1 (racemic) [Example 84, (Z)-3-((3-butyl-3-ethyl-7-(methylthio)-1,1-dioxido-5-phenyl-2,3,4,5-tetrahydro-1,2,5-benzothiadiazepin-8-yl)oxy)-2-fluoroacrylic Acid]"
70,2250,1150,,"CCCCC1(CC)CN(c2ccccc2)c2cc(SC)c(O/C=C/C(=O)O)cc2S(=O)(=O)N1C (racemic) [Example 88, (E)-3-((3-butyl-3-ethyl-2-methyl-7-(methylthio)-1,1-dioxido-5-phenyl-2,3,4,5-tetrahydro-1,2,5-benzothiadiazepin-8-yl)oxy)acrylic Acid]"
22,286,671,,"CCCCC1(CC)CN(c2ccccc2)c2cc(SC)c(O/C=C(\F)C(=O)O)cc2S(=O)(=O)N1C (racemic) [Example 98, (Z)-3-((3-butyl-3-ethyl-2-methyl-7-(methylthio)-1,1-dioxido-5-phenyl-2,3,4,5-tetrahydro-1,2,5-benzothiadiazepin-8-yl)oxy)-2-fluoroacrylic Acid]"
137,361,1160,,"CCCCC1(CC)CN(c2ccccc2)c2cc(I)c(O/C=C/C(=O)O)cc2S(=O)(=O)C1 (single isomer, unassigned) [Example 57, (E)-3-((3-butyl-3-ethyl-7-iodo-1,1-dioxido-5-phenyl-2,3,4,5-tetrahydro-1,5-benzothiazepin-8-yl)oxy)acrylic acid]"
84,24,,1500,"CCCCC1(CC)CN(c2ccccc2)c2cc(I)c(O/C=C/C(=O)O)cc2S(=O)(=O)C1 (single isomer, unassigned) [Example 58, (E)-3-((3-butyl-3-ethyl-7-iodo-1,1-dioxido-5-phenyl-2,3,4,5-tetrahydro-1,5-benzothiazepin-8-yl)oxy)acrylic acid]"
28,524,455,,"CCCC[C@]1(CC)CN(c2ccccc2)c2cc(Br)c(O/C=C(\F)C(=O)O)cc2S(=O)(=O)C1 (single isomer, unassigned) [Example 64]"

# — patent US11306064B2, “Benzothia(di)azepine compounds and their use as bile acid modulators” (Albireo AB, priority 2018, dated 2022)
